Among the test systems are OVCAR-5 ovarian; OVCAR-3 ovarian; KM12 colon; A549 NSCLC; BT-549 breast; OVCAR-4 ovarian; ACHN renal; SW-620 colon; A498 renal; EKVX NSCLC.
Experiment in all cases: NCI tumour cell line growth inhibition, 48 h

Structures are written as SMILES. Values joined by “and” are separate entries in the source; they are usually repeats but may differ in a detail not shown here. Identical values can stand only once.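 Cells were grown in 96-well plates and exposed to each compound for 48 hours at five concentrations; endpoints were interpolated linearly between bracketing concentrations, or set to the highest concentration if not reached. GI50 marks 50% less growth. TGI denotes the concentration required for complete inhibition of growth.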

Consider `OCC1OC(n2cnc3c2NC=NC[C@H]3O)CC1O` (some centres not stated), for which the GI50 with OVCAR-5 ovarian was more than 588 µM; in the assay on OVCAR-3 ovarian, more than 588 µM; in the assay on A549 NSCLC it was 412 µM and > 588 µM; with OVCAR-4 ovarian, more than 588 µM; in the assay with ACHN renal, more than 588 µM; in the assay with SW-620 colon it was 478 µM and > 588 µM. Further, the GI50 in the assay on A498 renal is more than 588 µM. Besides, the TGI with OVCAR-5 ovarian was more than 588 µM; in the assay with OVCAR-3 ovarian, 500 µM and > 588 µM; in the assay with KM12 colon it was 500 µM; in the assay on A549 NSCLC, 461 µM and > 588 µM; in the assay with BT-549 breast it was more than 500 µM; with OVCAR-4 ovarian, 500 µM and > 588 µM. The TGI in the assay with ACHN renal was 497 µM and > 588 µM; in the assay on SW-620 colon it was 500 µM and > 588 µM; in the assay on A498 renal, 481 µM and > 588 µM; in the assay with EKVX NSCLC, 500 µM.
Take `Cc1cc(C)c2nc3nc(C)cc(C)c3c(N)c2c1`: the GI50 with OVCAR-5 ovarian was 4.3 µM; with OVCAR-3 ovarian it was 9.04 µM; with KM12 colon, 5.52 µM; in the assay on A549 NSCLC, 4.34 µM; with BT-549 breast, 11 µM; in the assay with OVCAR-4 ovarian, 3.63 µM. In addition, the GI50 in the assay on ACHN renal was 3.29 µM; in the assay on SW-620 colon, 3.4 µM; in the assay on A498 renal, 4.67 µM; in the assay on EKVX NSCLC, 4.76 µM. Also, the TGI with OVCAR-5 ovarian is 29.5 µM; in the assay on OVCAR-3 ovarian it was 39.9 µM; in the assay with KM12 colon it was 24 µM; with A549 NSCLC, more than 100 µM; with BT-549 breast, 31.7 µM; with OVCAR-4 ovarian, 19.8 µM. In addition, the TGI in the assay on ACHN renal amounted to 49.4 µM; in the assay with SW-620 colon it was 21.4 µM; with A498 renal it was 17.8 µM; with EKVX NSCLC it was 43 µM.
As for `O=S(=O)(CCNCc1ccc(-c2ccc3ncnc(Nc4ccc(OCc5cccc(F)c5)c(Cl)c4)c3c2)o1)c1ccccc1`, the GI50 with OVCAR-5 ovarian, in the assay on OVCAR-3 ovarian, in the assay with KM12 colon, in the assay with A549 NSCLC, in the assay on BT-549 breast and in the assay with OVCAR-4 ovarian was more than 25 µM each time. Moreover, the GI50 was 18.9 µM in the assay with ACHN renal, more than 25 µM in the assay with SW-620 colon, more than 14.6 µM with A498 renal and 3.44 µM in the assay on EKVX NSCLC. Also, the TGI in the assay with OVCAR-5 ovarian, in the assay with OVCAR-3 ovarian, in the assay with KM12 colon, in the assay with A549 NSCLC, in the assay with BT-549 breast and in the assay with OVCAR-4 ovarian was more than 25 µM in each case. Besides, the TGI in the assay on ACHN renal, with SW-620 colon, in the assay with A498 renal and in the assay with EKVX NSCLC was more than 25 µM each time.
As to `S=C(c1ccc2c(c1)OCO2)N1CCN(c2cccc(Cl)c2)CC1`, the GI50 with OVCAR-5 ovarian was 7.69 µM; in the assay on OVCAR-3 ovarian it was 0.338 µM; in the assay on KM12 colon it was 0.447 µM; with A549 NSCLC, 0.872 µM; with BT-549 breast, 9.32 µM; in the assay on OVCAR-4 ovarian it was 7.45 µM. Moreover, the GI50 is 13.4 µM in the assay on ACHN renal, 0.404 µM in the assay with SW-620 colon, 0.424 µM with A498 renal and 4.52 µM with EKVX NSCLC. For the same molecule, the TGI with OVCAR-5 ovarian was more than 100 µM; in the assay with OVCAR-3 ovarian, 1.23 µM; with KM12 colon it was 29.7 µM; with A549 NSCLC, more than 40.2 µM; in the assay on BT-549 breast, more than 100 µM; in the assay with OVCAR-4 ovarian, more than 100 µM. In addition, the TGI with ACHN renal was more than 100 µM; in the assay with SW-620 colon, more than 100 µM; in the assay on A498 renal, 12.8 µM; in the assay on EKVX NSCLC, more than 100 µM.
For `COC1=CC(c2ccc[nH]2)=N/C1=C\c1[nH]c(C)c(C(C)=O)c1C`, the GI50 was more than 100 µM with OVCAR-5 ovarian; 0.178 µM with OVCAR-3 ovarian; 0.262 µM with KM12 colon; 2.02 µM in the assay with A549 NSCLC; 0.222 µM in the assay on BT-549 breast; 3.51 µM with OVCAR-4 ovarian. The GI50 is 0.67 µM in the assay with ACHN renal, 0.0605 µM with SW-620 colon, 18.1 µM in the assay with A498 renal and 2.25 µM with EKVX NSCLC. The TGI was more than 100 µM in the assay on OVCAR-5 ovarian; more than 100 µM with OVCAR-3 ovarian; more than 100 µM in the assay on KM12 colon; more than 44.8 µM in the assay on A549 NSCLC; more than 100 µM in the assay on BT-549 breast; more than 100 µM in the assay with OVCAR-4 ovarian. In addition, the TGI in the assay on ACHN renal was more than 55.8 µM; in the assay with A498 renal it was 57 µM; in the assay on EKVX NSCLC, more than 100 µM.
Take `O=C(O)c1ccccc1-c1ccccc1C(=O)Nc1ccc2c(c1)[nH]c(=O)c1ccccc12`: the TGI in the assay with OVCAR-5 ovarian, in the assay with OVCAR-3 ovarian, in the assay on KM12 colon, with A549 NSCLC, in the assay with BT-549 breast and in the assay with OVCAR-4 ovarian was more than 100 µM in each case. Also, the TGI with ACHN renal, in the assay with SW-620 colon, with A498 renal and in the assay on EKVX NSCLC was more than 100 µM each time.
In the case of `Cc1ccc(-c2nc(N)c(C#N)c3c2CCOc2c-3ccc3ccccc23)cc1`, the GI50 in the assay with OVCAR-5 ovarian was 4.74 µM; in the assay on OVCAR-3 ovarian, 0.069 µM; in the assay with KM12 colon, 0.203 µM; in the assay on A549 NSCLC it was 1.2 µM; in the assay with BT-549 breast it was 3.85 µM; in the assay on OVCAR-4 ovarian it was 16.3 µM. The GI50 in the assay on ACHN renal was 0.847 µM; with SW-620 colon, 1.76 µM; in the assay with A498 renal, 0.0794 µM; with EKVX NSCLC, 3.12 µM. For the same molecule, the TGI with OVCAR-5 ovarian is more than 100 µM; in the assay on OVCAR-3 ovarian it was 1.86 µM; in the assay on KM12 colon, 48.6 µM; in the assay with A549 NSCLC, 22.9 µM; in the assay on BT-549 breast it was 54 µM; in the assay with OVCAR-4 ovarian, more than 79.5 µM. The TGI is more than 36.1 µM in the assay with ACHN renal, more than 93.4 µM in the assay on SW-620 colon and 0.609 µM with A498 renal.
In the case of `N#CCCSC(=S)C1CCCC1=N` (configuration not stated), the TGI with OVCAR-5 ovarian, in the assay with OVCAR-3 ovarian, with KM12 colon, in the assay with A549 NSCLC, in the assay on BT-549 breast and in the assay with OVCAR-4 ovarian was more than 100 µM throughout. Moreover, the TGI in the assay on ACHN renal, in the assay on SW-620 colon, in the assay on A498 renal and with EKVX NSCLC was more than 100 µM each time.
For the molecule `O=C(Nc1ccc(OCc2nnc(-c3ccccc3)o2)c(F)c1)Nc1ccc(Cl)c(C(F)(F)F)c1`, the GI50 with OVCAR-5 ovarian was 7.56 µM; with OVCAR-3 ovarian, 2.06 µM; in the assay on KM12 colon, 1.47 µM; in the assay on A549 NSCLC, 1.91 µM; with BT-549 breast it was 3.51 µM; in the assay with OVCAR-4 ovarian, 2.49 µM. The results for the GI50 with ACHN renal, in the assay on SW-620 colon and in the assay with A498 renal were 1.84 µM, 3.6 µM and 1.61 µM, respectively. The TGI with OVCAR-5 ovarian is more than 100 µM; in the assay with OVCAR-3 ovarian it was 7.25 µM; with KM12 colon, 5.09 µM; with A549 NSCLC it was 35.5 µM; with BT-549 breast it was 13.1 µM; in the assay on OVCAR-4 ovarian, 8.52 µM. The TGI amounted to 4.42 µM in the assay with ACHN renal, 35.4 µM with SW-620 colon and 4.25 µM in the assay with A498 renal.
On to `O=C(NC1CCCCC1)NS(=O)(=O)c1ccc(-n2nc3c(c2-c2ccc(Cl)cc2)Cc2ccccc2-3)cc1`, for which the GI50 in the assay on OVCAR-3 ovarian was 13.7 µM; with KM12 colon, 10.6 µM; in the assay on A549 NSCLC, 16.6 µM; with BT-549 breast, 3.52 µM; with OVCAR-4 ovarian, 28.8 µM; in the assay with ACHN renal it was 7.93 µM. Moreover, the GI50 in the assay on SW-620 colon was 2.46 µM; in the assay on A498 renal, 18.5 µM; in the assay with EKVX NSCLC it was 14.2 µM. For the same molecule, the TGI was 28.8 µM with OVCAR-3 ovarian; 30.4 µM in the assay with KM12 colon; 34.6 µM in the assay on A549 NSCLC; 17.3 µM in the assay with BT-549 breast; more than 100 µM in the assay on OVCAR-4 ovarian; 21 µM with ACHN renal. The TGI in the assay with SW-620 colon is more than 100 µM; in the assay with A498 renal, 40.2 µM; in the assay with EKVX NSCLC it was 37.7 µM.
With `O=C1CC[C@H](c2ccc(O)c3c2C(=O)[C@@H]2O[C@@H]2C3=O)c2cccc(O)c21`, the GI50 with OVCAR-5 ovarian was 4.55 µM; in the assay with KM12 colon, 3.51 µM; in the assay on A549 NSCLC, 16.4 µM; in the assay on BT-549 breast, 2.38 µM; in the assay with OVCAR-4 ovarian, 3.51 µM; in the assay on ACHN renal it was 1.46 µM. Further, the figures for the GI50 in the assay on SW-620 colon, in the assay with A498 renal and in the assay with EKVX NSCLC were 1.6 µM, 15.5 µM and 13.1 µM, respectively. The TGI in the assay on OVCAR-5 ovarian came to 20.3 µM; in the assay with KM12 colon, 12.9 µM; with A549 NSCLC it was 40.9 µM; in the assay on BT-549 breast it was 6.42 µM; in the assay on OVCAR-4 ovarian, 13.9 µM; in the assay on ACHN renal, 4.16 µM. Further, the TGI was 4.92 µM with SW-620 colon, 29 µM with A498 renal and 28.2 µM in the assay on EKVX NSCLC.
As for `Cc1sc(NC2=NC(=O)/C(=C\c3ccccc3)S2)nc1-c1nc(NC2=NC(=O)/C(=C\c3ccccc3)S2)sc1C`, the GI50 with OVCAR-5 ovarian was 26.2 µM; with OVCAR-3 ovarian, 9.84 µM; in the assay on KM12 colon, 11.1 µM; in the assay on A549 NSCLC, 15.5 µM; in the assay with BT-549 breast, 18.4 µM; in the assay with ACHN renal, 12.4 µM. The figures for the GI50 in the assay with SW-620 colon, with A498 renal and in the assay with EKVX NSCLC were 16.7 µM, 12.1 µM and 0.0627 µM, respectively. Further, the TGI in the assay with OVCAR-5 ovarian was more than 50 µM; with OVCAR-3 ovarian, 29.1 µM; with KM12 colon, more than 37.9 µM; with A549 NSCLC, more than 39.6 µM; in the assay with BT-549 breast, more than 50 µM; in the assay on ACHN renal it was more than 32.6 µM. For the same molecule, the results for the TGI in the assay on SW-620 colon, in the assay on A498 renal and in the assay with EKVX NSCLC were more than 50 µM, 30.7 µM and 1.94 µM, respectively.

These data come from PubChem BioAssay (NCI).
